The values that follow come from patent US20240165114A1, “TREATMENT OF DIABETIC NEPHROPATHY WITH AN sGC STIMULATOR” (Cyclerion Therapeutics, Inc., priority 2019, published 2024).

Structures are written as SMILES.

Data set [1] in a line: Plasma IW-1973 concentrations / population PK in the Phase 2 study. The format is in vivo, human. On the procedure:
Plasma IW-1973 concentrations were measured for pharmacokinetic determinations.
The population PK approach based on sparse PK data was used to determine exposure (AUC) and oral clearance (CL/F) of IW-1973. Influence of patient demographics (eg, age, race) on exposure was evaluated. In addition, exposure-effect (such as hemodynamic, exploratory biomarkers, efficacy, and safety parameters) relationships were explored. Effects of concomitant medications on IW-1973 PK was also evaluated.
Praliciguat concentrations were measured using a validated liquid chromatography tandem mass spectrometry method, as previously described (Hanrahan J P, et al. “A Randomized, Placebo-Controlled, Multiple-Ascending-Dose Study to Assess the Safety, Tolerability, Pharmacokinetics, and Pharmacodynamics of the Soluble Guanylate Cyclase Stimulator Praliciguat in Healthy Subjects” Clin Pharmacol Drug Dev. 2019, 8(5):564-575). Population PK analysis was performed using NONMEM 7.4 (Icon Development Solutions, Ellicott City, MD) to update an existing model established with data from three Phase 1 studies in healthy subjects and two phase 2a studies in patients with stable type 2 diabetes mellitus (T2D) and hypertension. The influence of patient demographics, renal function and concomitant medications on exposure were evaluated, and estimates of exposure (AUC) and oral clearance (CL/F) were determined.

The test system of data set [2] is adult patients with type 2 diabetes mellitus with albuminuria. Description: Phase 2 study: serum LDL cholesterol. The class given is in vivo, human. The conditions noted are these: for Serum LDL Cholesterol: Between PRL and PBO Group LS Mean Change from Baseline at week 12 / Serum LDL Cholesterol: Within Group LS Mean Change from Baseline at Week 12: ITT; for LDL Cholesterol: Placebo Adjusted LS Mean Change from Baseline at Week 12 / LDL Cholesterol: Within Group LS Mean Change from Baseline at Week 12: mITT Population. An excerpt: Other secondary objectives of this clinical study included the evaluation of the pharmacokinetic (PK) concentrations of oral IW-1973 and the exploration of the effect of oral IW-1973 on hemodynamics and metabolic effects when administered daily for approximately 12 weeks to adult patients with type 2 diabetes mellitus with albuminuria (i.e., DN patients) who were on a stable regimen of renin-angiotensin system inhibitors (RAAS inhibitors, i.e., ACEi's and ARBs).
Clinical laboratory assessments obtained during the performance of this clinical trial included: complete blood count, serum chemistry panel, urinalysis, coagulation panel, estimated glomerular filtration rate (eGFR; determined by the Chronic Kidney Disease Epidemiology Collaboration [CKD-EPI] creatinine equation), hemoglobin A1c (HbA1C), Homeostatic Model Assessment to estimate insulin resistance (HOMA-IR), platelet function assessment (using VerifyNow®, at a subset of sites), urine pregnancy, and screens for hepatitis, human immunodeficiency virus, and drugs of abuse.
This multicenter, randomized, double-blind, placebo-controlled, parallel-group study evaluated 2 dose levels of IW-1973 compared with placebo. The study population consisted of adult patients with type 2 diabetes mellitus, albuminuria, and impaired renal function. Patients had to have been taking antihyperglycemic medications for at least 12 weeks with their regimen being stable (ie, drug and dose) for at least 28 days before the Randomization Visit. Additionally, patients had to have been on a stable regimen of angiotensin-converting enzyme inhibitor (ACEi) or an angiotensin receptor blocker (ARB), for at least 28 days before the Randomization Visit. For more details, see Inclusion Criteria below. A total of 156 patients (approximately 50 patients per arm) were stratified by baseline estimated glomerular filtration rate (eGFR) into three groups: eGFR 30 to 45, >45 to 60, and >60 to 75 mL/min/1.73 m^2) and randomized approximately 1:1:1 to total daily 20 mg IW-1973, 40 mg IW-1973, or placebo.

Regarding `OC(CNc1nc(-c2cc(-c3ccon3)n(Cc3ccccc3F)n2)ncc1F)(C(F)(F)F)C(F)(F)F` [Compound I, praliciguat], in data set [1] (20 mg and 40 mg total daily oral dose), the “plasma exposure versus dose” value was “dose-proportional exposure”. Also, the “time to steady state of plasma concentrations” value in data set [1] (daily oral dosing) was not above 4 weeks. In addition, the “route of elimination (renal excretion)” value in data set [1] (metabolized in the liver) was “negligible renal excretion”. For the same molecule, in data set [2] (PRL 20 mg), the “Serum LDL Cholesterol: Between PRL and PBO Group LS Mean Change from Baseline at week 12” value was -8.9 mg/dL; the “Serum LDL Cholesterol: Within Group LS Mean Change from Baseline at Week 12” value was -6.0 mg/dL; the “LDL Cholesterol: Placebo Adjusted LS Mean Change from Baseline at Week 12” value was -13.4 mg/dL; the “LDL Cholesterol: Within Group LS Mean Change from Baseline at Week 12” value was -8.8 mg/dL. In data set [2] (PRL 40 mg), the “Serum LDL Cholesterol: Between PRL and PBO Group LS Mean Change from Baseline at week 12” value was -6.2 mg/dL; the “Serum LDL Cholesterol: Within Group LS Mean Change from Baseline at Week 12” value was -3.3 mg/dL; the “LDL Cholesterol: Placebo Adjusted LS Mean Change from Baseline at Week 12” value was -9.5 mg/dL; the “LDL Cholesterol: Within Group LS Mean Change from Baseline at Week 12” value was -4.9 mg/dL. For the same molecule, in data set [2] (PRL Combined), the “Serum LDL Cholesterol: Between PRL and PBO Group LS Mean Change from Baseline at week 12” value is -7.5 mg/dL; the “Serum LDL Cholesterol: Within Group LS Mean Change from Baseline at Week 12” value was -4.6 mg/dL; the “LDL Cholesterol: Placebo Adjusted LS Mean Change from Baseline at Week 12” value is -11.4 mg/dL; the “LDL Cholesterol: Within Group LS Mean Change from Baseline at Week 12” value is -6.9 mg/dL.
